PubChem BioAssay (NCI)
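Step 1: Grow cells in 96-well plates. Step 2: Expose to compound for 48 hours at 5 concentrations. Step 3: Interpolate endpoints linearly; if unreached, use highest concentration. The concentration for full growth arrest is given as TGI.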

Legend:
Experiment in all cases: NCI tumour cell line growth inhibition, 48 h
HCT-15 colon = test system: HCT-15 colon
HL-60(TB) leukemia = test system: HL-60(TB) leukemia
786-0 renal = test system: 786-0 renal
RXF-631 renal = test system: RXF-631 renal
SF-295 CNS = test system: SF-295 CNS
HT29 colon = test system: HT29 colon
HOP-18 NSCLC = test system: HOP-18 NSCLC
KM20L2 colon = test system: KM20L2 colon
SNB-78 CNS = test system: SNB-78 CNS
SF-268 CNS = test system: SF-268 CNS
SN12C renal = test system: SN12C renal
A498 renal = test system: A498 renal
IGROV1 ovarian = test system: IGROV1 ovarian
DMS 114 small cell lung = test system: DMS 114 small cell lung
ACHN renal = test system: ACHN renal
KM12 colon = test system: KM12 colon
HCC-2998 colon = test system: HCC-2998 colon
RXF 393 renal = test system: RXF 393 renal
U251 CNS = test system: U251 CNS
SF-539 CNS = test system: SF-539 CNS
SNB-75 CNS = test system: SNB-75 CNS
CCRF-CEM leukemia = test system: CCRF-CEM leukemia
XF 498 CNS = test system: XF 498 CNS
HOP-62 NSCLC = test system: HOP-62 NSCLC
OVCAR-8 ovarian = test system: OVCAR-8 ovarian
M19-MEL melanoma = test system: M19-MEL melanoma
SK-OV-3 ovarian = test system: SK-OV-3 ovarian
M14 melanoma = test system: M14 melanoma
MOLT-4 leukemia = test system: MOLT-4 leukemia
NCI-H460 lung = test system: NCI-H460 lung
OVCAR-5 ovarian = test system: OVCAR-5 ovarian
MALME-3M melanoma = test system: MALME-3M melanoma
SK-MEL-28 melanoma = test system: SK-MEL-28 melanoma
HCT-116 colon = test system: HCT-116 colon
SK-MEL-5 melanoma = test system: SK-MEL-5 melanoma
OVCAR-4 ovarian = test system: OVCAR-4 ovarian
LXFL 529 NSCLC = test system: LXFL 529 NSCLC
UO-31 renal = test system: UO-31 renal
OVCAR-3 ovarian = test system: OVCAR-3 ovarian
HOP-92 NSCLC = test system: HOP-92 NSCLC
SR leukemia = test system: SR leukemia
TK-10 renal = test system: TK-10 renal
K-562 leukemia = test system: K-562 leukemia
DMS 273 small cell lung = test system: DMS 273 small cell lung
DLD-1 colon = test system: DLD-1 colon
NCI-H226 lung = test system: NCI-H226 lung
COLO 205 colon = test system: COLO 205 colon
NCI-H23 lung = test system: NCI-H23 lung
UACC-257 melanoma = test system: UACC-257 melanoma
RPMI-8226 leukemia = test system: RPMI-8226 leukemia
A549 NSCLC = test system: A549 NSCLC

C[N+]1(C)C/C(=C\c2ccccc2)C(=O)/C(=C/c2ccccc2)C1
TGI (HCT-15 colon): > 100 µM | TGI (HL-60(TB) leukemia): > 100 µM | TGI (786-0 renal): > 100 µM | TGI (RXF-631 renal): > 100 µM | TGI (SF-295 CNS): > 100 µM | TGI (HT29 colon): > 100 µM | TGI (HOP-18 NSCLC): > 100 µM | TGI (KM20L2 colon): > 100 µM | TGI (SNB-78 CNS): > 100 µM | TGI (SF-268 CNS): > 100 µM | TGI (SN12C renal): 73.2 µM | TGI (A498 renal): > 100 µM | TGI (IGROV1 ovarian): > 100 µM | TGI (DMS 114 small cell lung): > 100 µM | TGI (ACHN renal): > 100 µM | TGI (KM12 colon): > 100 µM | TGI (HCC-2998 colon): > 100 µM | TGI (RXF 393 renal): > 100 µM | TGI (U251 CNS): > 100 µM | TGI (SF-539 CNS): > 100 µM | TGI (SNB-75 CNS): > 100 µM | TGI (CCRF-CEM leukemia): > 100 µM | TGI (XF 498 CNS): > 100 µM | TGI (HOP-62 NSCLC): > 100 µM | TGI (OVCAR-8 ovarian): > 100 µM | TGI (M19-MEL melanoma): > 100 µM | TGI (SK-OV-3 ovarian): > 100 µM | TGI (M14 melanoma): > 100 µM | TGI (MOLT-4 leukemia): > 100 µM | TGI (NCI-H460 lung): > 100 µM | TGI (OVCAR-5 ovarian): > 100 µM | TGI (MALME-3M melanoma): > 100 µM | TGI (SK-MEL-28 melanoma): > 100 µM | TGI (HCT-116 colon): > 100 µM | TGI (SK-MEL-5 melanoma): > 100 µM | TGI (OVCAR-4 ovarian): > 100 µM | TGI (LXFL 529 NSCLC): > 100 µM | TGI (UO-31 renal): > 100 µM | TGI (OVCAR-3 ovarian): > 100 µM | TGI (HOP-92 NSCLC): > 100 µM | TGI (SR leukemia): > 100 µM | TGI (TK-10 renal): > 100 µM | TGI (K-562 leukemia): > 100 µM | TGI (DMS 273 small cell lung): > 100 µM | TGI (DLD-1 colon): > 100 µM | TGI (NCI-H226 lung): > 100 µM | TGI (COLO 205 colon): > 100 µM | TGI (NCI-H23 lung): > 100 µM | TGI (UACC-257 melanoma): > 100 µM | TGI (RPMI-8226 leukemia): > 100 µM | TGI (A549 NSCLC): > 100 µM
